In US20230295130A1, “COMPOUND USEFUL AS CDK7 KINASE INHIBITOR AND USE THEREOF” (TYK MEDICINES, INC., priority 2020, published 2023):

What follows are compounds tested against CDK7/Cyclin H/MAT1 kinase (Homo sapiens (Human), UniProt P50613) (assay: Enzyme activity test, mobility shift assay (Table 1)). Conditions: 2 mM ATP; pre-incubated 0 and 60 minutes.
Format: biochemical
Method: IC50 values of the compounds for CDK7 kinase were detected in Wuxi Biortus Biosciences Co. Ltd.
(§1) The compound powder was dissolved in 100% DMSO to prepare a 10 mM storage solution. The storage solution was further diluted to 0.5 mM as the initial concentration, and continuously diluted 3 times to obtain 10 compound solutions with different concentrations. The compound and enzyme were pre-incubated for 0 minutes and 60 minutes, respectively, using duplicate detection.
(§2) was used as a positive control, and Mobility shift assay method was used to detect CDK kinase (such as CDK7, CDK9, CDK12 and CDK2) activity of the compounds.

CDK7/Cyclin H/MAT1 kinase, sequence (P50613 whole entry): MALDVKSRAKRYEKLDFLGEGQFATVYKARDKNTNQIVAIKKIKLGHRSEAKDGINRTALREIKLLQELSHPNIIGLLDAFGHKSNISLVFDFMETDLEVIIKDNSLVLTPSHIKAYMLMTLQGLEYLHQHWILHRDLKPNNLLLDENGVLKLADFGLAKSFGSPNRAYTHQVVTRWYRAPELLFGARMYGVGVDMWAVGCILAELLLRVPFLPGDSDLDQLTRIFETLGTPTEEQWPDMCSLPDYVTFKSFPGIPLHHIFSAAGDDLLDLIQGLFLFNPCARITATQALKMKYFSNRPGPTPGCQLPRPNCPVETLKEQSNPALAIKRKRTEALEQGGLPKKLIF
CDK7/Cyclin H/MAT1 kinase, sequence (P51946 whole entry partner): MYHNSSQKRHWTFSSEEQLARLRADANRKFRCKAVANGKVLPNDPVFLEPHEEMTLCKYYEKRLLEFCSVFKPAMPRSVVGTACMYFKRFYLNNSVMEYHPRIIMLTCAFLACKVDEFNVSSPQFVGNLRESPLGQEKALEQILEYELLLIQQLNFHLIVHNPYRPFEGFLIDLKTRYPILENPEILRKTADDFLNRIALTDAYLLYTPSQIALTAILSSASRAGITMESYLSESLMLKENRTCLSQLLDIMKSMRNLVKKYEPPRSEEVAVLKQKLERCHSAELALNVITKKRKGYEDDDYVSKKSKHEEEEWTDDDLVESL
CDK7/Cyclin H/MAT1 kinase, sequence (P51948 whole entry partner): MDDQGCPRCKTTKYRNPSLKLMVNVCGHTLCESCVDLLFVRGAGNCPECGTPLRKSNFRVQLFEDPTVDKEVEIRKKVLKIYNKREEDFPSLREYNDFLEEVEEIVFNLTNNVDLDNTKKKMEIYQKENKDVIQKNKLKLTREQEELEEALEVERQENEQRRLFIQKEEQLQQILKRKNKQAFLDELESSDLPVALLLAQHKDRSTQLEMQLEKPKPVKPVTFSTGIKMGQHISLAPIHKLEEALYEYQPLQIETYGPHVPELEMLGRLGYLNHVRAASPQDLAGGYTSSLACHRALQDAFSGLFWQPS

| IC50 | Compound |
| --- | --- |
| > 500 nM | COC(=O)Nc1ccc2c(-c3nc(N[C@H]4CCC[C@H](O)C4)ncc3C(F)(F)F)c[nH]c2c1Br [Compound T-50] |
| < 50 nM | COC(=O)N(C)c1ccc2c(-c3nc(N[C@H]4CCC(C)(C)NC4)ncc3C(F)(F)F)c[nH]c2c1P(C)(C)=O [Compound T-103] |
| 50 to 500 nM | COC(=O)Nc1ccc2c(-c3nc(O[C@H]4CCCNC4)ncc3C(F)(F)F)c[nH]c2c1Br [Example T-02] |
| > 500 nM | COC(=O)Nc1ccc2c(-c3nc(N[C@H]4CCC[C@H](O)C4)ncc3C(F)(F)F)c[nH]c2c1Br [Example T-30] |
| 50 to 500 nM | CN(C)C(=O)n1cc(-c2nc(N[C@H]3CCC(C)(C)NC3)ncc2C(F)(F)F)c2ccc(O)cc21 [Example T-33] |
| < 50 nM | COC(=O)Nc1ccc2c(-c3nc(N[C@H]4CCC5(CC5)NC4)ncc3C(F)(F)F)c[nH]c2c1OC [Example T-38] |
| 50 to 500 nM | COC(=O)Nc1ccc2c(-c3nc(N[C@H]4CCNC4)ncc3C(F)(F)F)c[nH]c2c1Br [Example T-39] |
| 50 to 500 nM | COC(=O)Nc1ccc2c(-c3nc(N[C@H]4CCCNC4)ncc3C(F)(F)F)cn(C)c2c1Br [Example T-40] |
| 50 to 500 nM | COC(=O)N(C)c1ccc2c(-c3nc(N[C@H]4CCCNC4)ncc3C(F)(F)F)cn(C)c2c1Br [Example T-41] |
| 50 to 500 nM | CCCOC(=O)Nc1ccc2c(-c3nc(N[C@H]4CCCNC4)ncc3C(F)(F)F)c[nH]c2c1Br [Example T-45] |
| 50 to 500 nM | O=C1OCCN1c1ccc2c(-c3nc(N[C@H]4CCNC4)ncc3C(F)(F)F)c[nH]c2c1Br [Example T-46] |
| 50 to 500 nM | O=C1CCCN1c1ccc2c(-c3nc(N[C@H]4CCNC4)ncc3C(F)(F)F)c[nH]c2c1Br [Example T-47] |
| < 50 nM | O=C1OCCN1c1ccc2c(-c3nc(N[C@H]4CCCNC4)ncc3C(F)(F)F)c[nH]c2c1 [Example T-49] |
| > 500 nM | COC(=O)Nc1ccc2c(-c3nc(N[C@H]4CC[C@@H](N)C4)ncc3C(F)(F)F)c[nH]c2c1Br [Example T-53] |
| 50 to 500 nM | COC(=O)Nc1ccc2c(-c3nc(N[C@H]4CC[C@H](N)C4)ncc3C(F)(F)F)c[nH]c2c1Br [Example T-54] |
| > 500 nM | COC(=O)Nc1ccc2c(-c3nc(N[C@@H]4CC[C@H](N)C4)ncc3C(F)(F)F)c[nH]c2c1Br [Example T-55] |
| 50 to 500 nM | COC(=O)Nc1ccc2c(-c3nc(N[C@@H]4CC[C@@H](N)C4)ncc3C(F)(F)F)c[nH]c2c1Br [Example T-56] |
| 50 to 500 nM | COC(=O)Nc1ccc2c(-c3nc(N[C@@H]4CCC[C@H]4N)ncc3C(F)(F)F)c[nH]c2c1Br [Example T-57] |
| 50 to 500 nM | COC(=O)Nc1ccc2c(-c3nc(N[C@@H]4CCC[C@@H]4N)ncc3C(F)(F)F)c[nH]c2c1Br [Example T-58] |
| 50 to 500 nM | COC(=O)Nc1ccc2c(-c3nc(N[C@H]4CCC[C@H]4N)ncc3C(F)(F)F)c[nH]c2c1Br [Example T-59] |

| IC50 | Compound |
| --- | --- |
| 50 to 500 nM | COC(=O)Nc1ccc2c(-c3nc(N[C@@H]4CCNC4)ncc3C(F)(F)F)c[nH]c2c1Br [Example T-61] |
| < 50 nM | COC(=O)Nc1ccc2c(-c3nc(N[C@H]4CCCNC4)ncc3Cl)c[nH]c2c1Br [Example T-71] |
| < 50 nM | COC(=O)Nc1ccc2c(-c3nc(N[C@H]4CCC(C)(C)NC4)ncc3Cl)c[nH]c2c1Br [Example T-72] |
| < 50 nM | COC(=O)Nc1ccc2c(-c3nc(N[C@H]4CCCNC4)ncc3C)c[nH]c2c1Br [Example T-76] |
| < 50 nM | CCc1cnc(N[C@H]2CCCNC2)nc1-c1c[nH]c2c(Br)c(NC(=O)OC)ccc12 [Example T-77] |
| 50 to 500 nM | COC(=O)Nc1ccc2c(-c3nc(N[C@H]4CCCNC4)ncc3C(C)C)c[nH]c2c1Br [Example T-78] |
| < 50 nM | COC(=O)Nc1ccc2c(-c3nc(N[C@H]4CCCNC4)ncc3C(F)(F)F)c[nH]c2c1C1CCOC1 (stereo partly shown) [Example T-83] |
| < 50 nM | COC(=O)Nc1ccc2c(-c3nc(N[C@H]4CCC(C)(C)NC4)ncc3Cl)c[nH]c2c1C(F)(F)F [Example T-87] |
| < 50 nM | COC(=O)Nc1ccc2c(-c3nc(N[C@H]4CCC(C)(C)NC4)ncc3C(F)(F)F)c[nH]c2c1SC(C)C [Example T-89] |
| < 50 nM | C#Cc1c(NC(=O)OC)ccc2c(-c3nc(N[C@H]4CCC(C)(C)NC4)ncc3C(F)(F)F)c[nH]c12 [Example T-90] |
| 50 to 500 nM | COC(=O)Nc1ccc2c(-c3nc(N[C@H]4CCC(C)(C)NC4)ncc3C(F)(F)F)c[nH]c2c1OC1CCCC1 [Example T-92] |
| < 50 nM | COC(=O)Nc1ccc2c(-c3nc(N[C@H]4CCC(C)(C)NC4)ncc3C(F)(F)F)c[nH]c2c1OC1CCC1 [Example T-93] |
| < 50 nM | COC(=O)Nc1ccc2c(-c3nc(N[C@H]4CCC(C)(C)NC4)ncc3C(F)(F)F)c[nH]c2c1OC(C)C [Example T-94] |
| < 50 nM | CCOc1c(NC(=O)OC)ccc2c(-c3nc(N[C@H]4CCC(C)(C)NC4)ncc3C(F)(F)F)c[nH]c12 [Example T-95] |
| < 50 nM | COC(=O)Nc1ccc2c(-c3nc(N[C@H]4CCC(C)(C)NC4)ncc3C(F)(F)F)c[nH]c2c1CC(F)(F)F [Example T-97] |
| < 50 nM | COC(=O)Nc1ccc2c(-c3nc(N[C@@H]4CNCC(C)(C)C4)ncc3C(F)(F)F)c[nH]c2c1C(F)(F)F [Example T-101] |
| < 50 nM | COC(=O)Nc1ccc2c(-c3nc(N[C@H]4CCCN(C)C4)ncc3C(F)(F)F)c[nH]c2c1C(F)(F)F [Example T-111] |
| < 50 nM | CCN[C@H]1CCC[C@@H]1Nc1ncc(C(F)(F)F)c(-c2c[nH]c3c(Br)c(NC(=O)OC)ccc23)n1 [Example T-115] |
| < 50 nM | CCN[C@H]1CCC[C@@H]1Nc1ncc(C(F)(F)F)c(-c2c[nH]c3c(C(F)(F)F)c(NC(=O)OC)ccc23)n1 [Example T-117] |
| < 50 nM | COC(=O)Nc1ccc2c(-c3nc(N[C@H]4CCCNC4)ncc3C(F)(F)F)c[nH]c2c1OC(F)F [Example T-121] |

| IC50 | Compound |
| --- | --- |
| < 50 nM | COC(=O)Nc1ccc2c(-c3nc(N[C@H]4CCCNC4)ncc3Cl)c[nH]c2c1OC(F)(F)F [Example T-123] |
| < 50 nM | COC(=O)Nc1ccc2c(-c3nc(NC4CNC5CC5C4)ncc3C(F)(F)F)c[nH]c2c1Cl (stereo not shown) [Example T-126] |
| 50 to 500 nM | COC(=O)Nc1ccc2c(-c3nc(N[C@H]4CC=C(C)NC4)ncc3C(F)(F)F)c[nH]c2c1OC [Example T-133] |
| 50 to 500 nM | COC(=O)Nc1ccc2c(-c3nc(N[C@H]4CC[C@H](C)NC4)ncc3C(F)(F)F)c[nH]c2c1OC [Example T-141] |
| 50 to 500 nM | COC(=O)Nc1ccc2c(-c3nc(N[C@H]4CC[C@H](C)NC4)ncc3C(F)(F)F)c[nH]c2c1Br [Example T-144] |
| 50 to 500 nM | COC(=O)Nc1ccc2c(-c3nc(N[C@H]4CCC(C)NC4)ncc3C(F)(F)F)c[nH]c2c1Cl (stereo partly shown) [Example T-145] |
| 50 to 500 nM | COC(=O)Nc1ccc2c(-c3nc(N[C@H]4CC[C@H](C)NC4)ncc3C(F)(F)F)c[nH]c2c1Cl [Example T-147] |
| 50 to 500 nM | COC(=O)Nc1ccc2c(-c3nc(N[C@H]4CC=C(C)NC4)ncc3C(F)(F)F)c[nH]c2c1Cl [Example T-148] |
| 50 to 500 nM | COC(=O)Nc1ccc2c(-c3nc(N[C@H]4CC[C@H](C)NC4)ncc3C(F)(F)F)c[nH]c2c1OCC(F)(F)F [Example T-152] |
| < 50 nM | COC(=O)Nc1ccc2c(-c3nc(N[C@H]4CCCNC4)ncc3C(F)(F)F)c[nH]c2c1C(C)(C)O [Example T-157] |
| < 50 nM | CC(=O)Nc1ccc2c(-c3nc(N[C@H]4CCCNC4)ncc3C(F)(F)F)c[nH]c2c1C(C)(C)O [Example T-158] |
| < 50 nM | COC(=O)N(C)c1ccc2c(-c3nc(N[C@H]4CCCNC4)ncc3C(F)(F)F)c[nH]c2c1OC [Example T-166] |
| < 50 nM | COC(=O)Nc1ccc2c(-c3nc(N[C@H]4CCCN(C)C4)ncc3C(F)(F)F)c[nH]c2c1OC [Example T-167] |
| < 50 nM | COC(=O)N(C)c1ccc2c(-c3nc(N[C@H]4CCCNC4)ncc3C(F)(F)F)c[nH]c2c1C(C)(F)F [Example T-170] |
| < 50 nM | COC(=O)Nc1ccc2c(-c3nc(N[C@H]4CCCN(C)C4)ncc3C(F)(F)F)c[nH]c2c1C(C)(F)F [Example T-171] |
| < 50 nM | COC(=O)Nc1ccc2c(-c3nc(N[C@H]4CCCN(C)C4)ncc3C(F)(F)F)c[nH]c2c1C(F)(F)F [Example T-172] |
| < 50 nM | COC(=O)Nc1ccc2c(-c3nc(N[C@H]4CCCN(C)C4)ncc3C(F)(F)F)c[nH]c2c1OC(F)F [Example T-173] |
| < 50 nM | COC(=O)Nc1ccc2c(-c3nc(N[C@H]4CCCN(C)C4)ncc3C(F)(F)F)c[nH]c2c1C1CC1 [Example T-174] |
| < 50 nM | COC(=O)N(C)c1ccc2c(-c3nc(N[C@H]4CCCNC4)ncc3C(F)(F)F)c[nH]c2c1C1CC1 [Example T-175] |

| Compound | IC50 |
| --- | --- |
| CN(C)C(=O)Oc1ccc2c(-c3nc(N[C@H]4CCC(C)(C)NC4)ncc3C(F)(F)F)c[nH]c2c1 [Example T-32] | 50 to 500 nM |

These compounds were tested against CDK2/Cyclin El (Homo sapiens (Human), UniProt P24941) in the same assay as above. Conditions: 2 mM ATP; read-out: CDK2 kinase IC50.
Format: biochemical
Method: as §1, §2

| IC50 | Compound |
| --- | --- |
| > 500 nM | COC(=O)Nc1ccc2c(-c3nc(O[C@H]4CCCNC4)ncc3C(F)(F)F)c[nH]c2c1Br [Example T-02] |

These compounds were tested against CDK9/Cyclin Tl (Homo sapiens (Human), UniProt P50750) in the same assay as above. Conditions: 2 mM ATP; read-out: CDK9 kinase IC50.
CDK9/Cyclin Tl, sequence (P50750 whole entry): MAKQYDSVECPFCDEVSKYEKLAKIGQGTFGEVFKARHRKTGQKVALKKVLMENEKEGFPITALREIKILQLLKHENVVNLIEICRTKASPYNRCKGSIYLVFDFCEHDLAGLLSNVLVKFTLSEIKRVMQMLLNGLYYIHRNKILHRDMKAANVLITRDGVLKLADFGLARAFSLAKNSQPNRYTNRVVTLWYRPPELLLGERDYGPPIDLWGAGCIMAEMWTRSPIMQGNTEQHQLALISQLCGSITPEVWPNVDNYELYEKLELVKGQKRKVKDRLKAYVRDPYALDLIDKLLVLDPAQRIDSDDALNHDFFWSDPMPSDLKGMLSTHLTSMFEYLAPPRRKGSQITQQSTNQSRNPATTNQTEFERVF
CDK9/Cyclin Tl, sequence (O60563 whole entry partner): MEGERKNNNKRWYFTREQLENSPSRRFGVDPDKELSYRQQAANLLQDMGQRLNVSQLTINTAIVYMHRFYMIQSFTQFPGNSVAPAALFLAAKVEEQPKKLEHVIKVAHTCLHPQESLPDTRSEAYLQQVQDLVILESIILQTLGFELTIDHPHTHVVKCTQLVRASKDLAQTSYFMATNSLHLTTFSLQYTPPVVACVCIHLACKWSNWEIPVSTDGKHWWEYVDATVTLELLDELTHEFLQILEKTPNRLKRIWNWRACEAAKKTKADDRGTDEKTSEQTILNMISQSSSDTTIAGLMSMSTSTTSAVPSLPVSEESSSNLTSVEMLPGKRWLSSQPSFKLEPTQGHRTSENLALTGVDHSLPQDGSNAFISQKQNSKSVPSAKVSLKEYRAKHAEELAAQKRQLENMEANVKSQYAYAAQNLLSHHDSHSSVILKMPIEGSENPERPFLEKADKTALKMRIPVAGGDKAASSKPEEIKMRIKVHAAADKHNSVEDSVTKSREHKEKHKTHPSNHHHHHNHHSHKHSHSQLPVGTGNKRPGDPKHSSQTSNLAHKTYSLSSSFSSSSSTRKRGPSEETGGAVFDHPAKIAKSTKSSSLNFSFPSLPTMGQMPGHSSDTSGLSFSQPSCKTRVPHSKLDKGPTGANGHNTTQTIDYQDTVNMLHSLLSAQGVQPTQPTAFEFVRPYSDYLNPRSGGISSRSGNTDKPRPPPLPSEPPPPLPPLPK
Format: biochemical
Method: as §1, §2

| IC50 | Compound |
| --- | --- |
| > 500 nM | COC(=O)Nc1ccc2c(-c3nc(O[C@H]4CCCNC4)ncc3C(F)(F)F)c[nH]c2c1Br [Example T-02] |

These compounds were tested against CDK12 (aa686-1082)/Cyclin K (Homo sapiens (Human), UniProt Q9NYV4) in the same assay as above. Conditions: not given.
CDK12 (aa686-1082)/Cyclin K, sequence (Q9NYV4 686-1082): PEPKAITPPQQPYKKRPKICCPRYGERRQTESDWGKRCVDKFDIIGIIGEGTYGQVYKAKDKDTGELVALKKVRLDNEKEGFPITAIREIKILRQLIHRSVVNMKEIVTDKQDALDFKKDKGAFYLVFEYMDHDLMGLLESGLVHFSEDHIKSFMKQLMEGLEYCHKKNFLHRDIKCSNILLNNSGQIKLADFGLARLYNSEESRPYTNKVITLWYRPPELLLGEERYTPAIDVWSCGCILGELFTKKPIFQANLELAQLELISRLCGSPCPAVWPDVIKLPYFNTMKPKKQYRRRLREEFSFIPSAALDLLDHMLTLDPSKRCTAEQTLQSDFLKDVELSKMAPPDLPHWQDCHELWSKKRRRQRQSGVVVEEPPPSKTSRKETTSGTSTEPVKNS
CDK12 (aa686-1082)/Cyclin K, sequence (O75909 whole entry partner, the tested form may be a part): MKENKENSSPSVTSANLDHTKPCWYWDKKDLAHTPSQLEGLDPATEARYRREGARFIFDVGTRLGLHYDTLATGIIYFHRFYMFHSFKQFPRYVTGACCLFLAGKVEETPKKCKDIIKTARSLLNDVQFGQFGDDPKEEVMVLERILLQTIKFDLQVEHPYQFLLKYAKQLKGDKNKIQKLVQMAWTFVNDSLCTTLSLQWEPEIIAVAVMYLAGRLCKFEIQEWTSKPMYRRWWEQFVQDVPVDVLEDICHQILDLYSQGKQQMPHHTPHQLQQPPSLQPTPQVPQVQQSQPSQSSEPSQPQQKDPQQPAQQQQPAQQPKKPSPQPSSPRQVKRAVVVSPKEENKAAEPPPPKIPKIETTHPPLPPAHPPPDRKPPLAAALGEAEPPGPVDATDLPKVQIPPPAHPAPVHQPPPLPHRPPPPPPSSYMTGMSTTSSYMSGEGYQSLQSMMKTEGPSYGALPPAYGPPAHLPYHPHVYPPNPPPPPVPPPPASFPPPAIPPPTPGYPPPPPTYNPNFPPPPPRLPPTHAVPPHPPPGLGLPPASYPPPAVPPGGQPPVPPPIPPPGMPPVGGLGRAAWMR
Format: biochemical
Method: as §1, with “detection. Compound Staurosporine having a structural formula of” for “detection.”
as §2

| Compound | IC50 |
| --- | --- |
| CN[C@@H]1C[C@H]2O[C@@](C)([C@@H]1OC)n1c3ccccc3c3c4c(c5c6ccccc6n2c5c31)C(=O)NC4 [Staurosporine, reference compound] | > 500 nM |

Same assay, conditions: 2 mM ATP; read-out: CDK12 kinase IC50

| IC50 | Compound |
| --- | --- |
| > 500 nM | COC(=O)Nc1ccc2c(-c3nc(O[C@H]4CCCNC4)ncc3C(F)(F)F)c[nH]c2c1Br [Example T-02] |
